{"source": "patent US9254120B2", "about": "“Method for predicting breast cancer patient response to combination therapy” (Biodesix, Inc., priority 2011, dated 2016)", "key": {"[1]": {"tested_on": "early breast cancer patients", "conditions": "5 years of treatment, versus tamoxifen, hormone receptor-positive women; cited from earlier work"}, "[2]": {"tested_on": "first line metastatic breast cancer patients", "from_the_text": "The total number of patients in this trial was 1258, 1164 pretreatment serum samples were available for analysis. We obtained valid VeriStrat test results for 1046 of these patients, of which 961 were classified as VeriStrat Good, 80 were VeriStrat Poor, and 5 were VeriStrat Indeterminate (Undefined) (patients for whom 3 replicate spectra produced discrepant results); 117 samples were not evaluable due to hemolysis and we could not assign a VeriStrat label to one patient due to data inconsistencies between available samples.\nThe classifier assigned a class label to the samples, either “Good” or “Poor” or in a few instances “undefined.” The class labels were assigned using a K-nearest neighbor (KNN) scoring algorithm based on a comparison of the spectra, after preprocessing and calculation of integrated intensity values at selected features in the spectra, with a training set of class-labeled spectra from other cancer patients.\nIn our retrospective analysis of the EGF30008 study, we obtained serum samples from the patients participating in the study, subjected them to our VeriStrat test, and the samples were assigned class labels of Good or Poor, depending on the outcome of the KNN algorithm in the classifier.\nA Cox Proportional Hazard Model analysis was carried out including VeriStrat classification, treatment arm, and an interaction term between the two."}, "[3]": {"tested_on": "advanced breast cancer patients", "conditions": "letrozole versus anastrozole; cited from earlier work"}}, "note": "Where two headings read alike, the source gives them in different places."}
{"smiles": "CC(C)(C#N)c1cc(Cn2cncn2)cc(C(C)(C)C#N)c1", "note": "[anastrozole]", "values": [{"measurement": "Reduction in recurrence rates", "setting": "[1]", "result": 26, "unit": "%"}]}
{"smiles": "CS(=O)(=O)CCNCc1ccc(-c2ccc3ncnc(Nc4ccc(OCc5cccc(F)c5)c(Cl)c4)c3c2)o1", "note": "[lapatinib]", "values": [{"measurement": "Patient outcome on addition of lapatinib to letrozole", "setting": "[2]; VeriStrat Good group", "result": "little or no clinical benefit"}, {"measurement": "Patient outcome on addition of lapatinib to letrozole", "setting": "[2]; VeriStrat Poor group", "result": "significantly improves patient outcome"}]}
{"smiles": "N#Cc1ccc(C(c2ccc(C#N)cc2)n2cncn2)cc1", "note": "[letrozole]", "values": [{"measurement": "HR for PFS, VeriStrat Good vs VeriStrat Poor within the treatment arm (95% CI)", "setting": "[2]; HER2+ patients", "result": 0.29}, {"measurement": "Median PFS", "setting": "[2]; HER2+ patients, VeriStrat Good", "result": 3.0, "unit": "months"}, {"measurement": "Median PFS", "setting": "[2]; HER2+ patients, VeriStrat Poor", "result": 2.3, "unit": "months"}, {"measurement": "HR for PFS, VeriStrat Good vs VeriStrat Poor within the treatment arm (95% CI)", "setting": "[2]; HER2+ patients, listed as Let only", "result": "0.29 (0.09-0.98)"}, {"measurement": "Median PFS", "setting": "[2]; HER2- patients, VeriStrat Good", "result": 13.6, "unit": "months"}, {"measurement": "Median PFS", "setting": "[2]; HER2- patients, VeriStrat Poor", "result": 3.1, "unit": "months"}, {"measurement": "HR for PFS, VeriStrat Good vs VeriStrat Poor within the treatment arm (95% CI)", "setting": "[2]; HER2- patients, listed as Let only", "result": "0.37 (0.21-0.64)"}, {"measurement": "HR for PFS, VeriStrat Good vs VeriStrat Poor within the treatment arm (95% CI)", "setting": "[2]; HER2- patients, listed as letrozole+placebo", "result": 0.37}, {"measurement": "Median PFS", "setting": "[2]; overall population, VeriStrat Good patients", "result": 10.8, "unit": "months"}, {"measurement": "Median PFS", "setting": "[2]; overall population, VeriStrat Poor patients", "result": 2.8, "unit": "months"}, {"measurement": "HR for PFS, VeriStrat Good vs VeriStrat Poor within the treatment arm (95% CI)", "setting": "[2]; overall population, listed as Let only", "result": "0.36 (0.23-0.58)"}, {"measurement": "HR for PFS, VeriStrat Good vs VeriStrat Poor within the treatment arm (95% CI)", "setting": "[2]; overall population, listed as letrozole+placebo", "result": 0.36}, {"measurement": "Overall response rate (ORR)", "setting": "[3]", "result": "significantly superior to anastrozole"}]}
